# Assay results published in article PMC7504258, “New Hybrids of 4-Amino-2,3-polymethylene-quinoline and p-Tolylsulfonamide as Dual Inhibitors of Acetyl- and Butyrylcholinesterase and Potential Multifunctional Agents for Alzheimer’s Disease Treatment” (Molecules, 2020).
# Columns and labels:
# Porcine liver CES = assay: CES inhibition (4-nitrophenyl acetate hydrolysis); type: biochemical; conditions: inhibition at compound concentration 20 µM; mean ± SEM, n = 3
# Procedure: (§1) All experiments were carried out in accordance with the standard protocols approved by IPAC RAS. Human erythrocyte AChE, equine serum BChE, porcine liver CES, acetylthiocholine iodide (ATCh), butyrylthiocholine iodide (BTCh), 5,5′-dithio-bis-(2-nitrobenzoic acid) (DTNB), and 4-nitrophenol acetate (4-NPA) were purchased from Sigma-Aldrich (Saint Louis, MO, USA).
# Final enzyme and substrate (4-nitrophenyl acetate) concentrations were 0.02 unit/mL and 1 mM, respectively. Assays were carried out with a blank containing all constituents except porcine CES to assess non-enzymatic hydrolysis.
# (§2) An initial evaluation of inhibitory activity of compounds was carried out by determination of the AChE, BChE and CES inhibition at a compound concentration of 20 µM. For this, a sample of the corresponding enzyme was incubated with the test compound for 5 min at 25 °C for temperature equilibration; then the enzyme residual activity was determined. Each experiment was performed in triplicate.
# (§3) The test compounds were added to the assay solution and incubated with the enzyme at 25 °C for 5 min (for temperature equilibration) followed by the addition of substrate. A parallel control was made for the assay solution with no inhibitor.
# (§4) Measurements were performed in the FLUOStar OPTIMA microplate spectrophotometer (BMG Labtech, Ortenberg, Germany). Each experiment for the IC50 assay was performed in triplicate. The results were expressed as the mean ± SEM. The reaction rates in the presence and absence of inhibitor were compared, and the percent residual enzyme activity due to the presence of test compounds was calculated. IC50 values were determined graphically from inhibition curves (log inhibitor concentration vs. percent residual enzyme activity) using Origin 6.1 software (OriginLab, Northampton, MA, USA).
# Human erythrocyte AChE = target: T1, Human erythrocyte AChE (Homo sapiens, UniProt P22303); assay: biochemical; conditions: mean ± SEM, n = 3; pH 7.5, 25 °C
# T1 construct: AChE from human erythrocytes was used; purchased Sigma-Aldrich; host or cells: human erythrocytes
# T1 sequence (P22303 other isoform, or with tags, fused parts or gaps): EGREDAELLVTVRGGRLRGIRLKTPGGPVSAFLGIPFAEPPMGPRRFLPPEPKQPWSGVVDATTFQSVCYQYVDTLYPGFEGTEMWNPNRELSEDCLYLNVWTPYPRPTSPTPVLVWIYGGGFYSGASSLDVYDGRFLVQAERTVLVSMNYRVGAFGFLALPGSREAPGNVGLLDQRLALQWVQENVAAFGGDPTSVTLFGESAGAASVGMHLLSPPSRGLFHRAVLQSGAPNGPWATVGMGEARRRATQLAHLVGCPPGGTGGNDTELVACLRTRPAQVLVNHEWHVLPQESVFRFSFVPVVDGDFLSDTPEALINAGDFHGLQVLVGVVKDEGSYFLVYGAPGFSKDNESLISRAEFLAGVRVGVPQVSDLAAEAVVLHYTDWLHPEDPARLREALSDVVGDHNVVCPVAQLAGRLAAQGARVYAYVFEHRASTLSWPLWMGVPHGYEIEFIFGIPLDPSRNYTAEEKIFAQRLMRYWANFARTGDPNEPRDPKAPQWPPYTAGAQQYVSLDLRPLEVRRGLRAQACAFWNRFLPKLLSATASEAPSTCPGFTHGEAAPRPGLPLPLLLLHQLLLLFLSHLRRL
# Procedure: as §1
# (§5) AChE and BChE activities were measured by the colorimetric method of Ellman et al.. The assay solution consisted of 0.1 M K/Na phosphate buffer pH 7.5, 25 °C, 0.33 mM DTNB, 0.02 unit/mL AChE or BChE, and 1 mM substrate (ATCh or BTCh, respectively). Reagent blanks consisted of reaction mixtures without substrates.
# as §2, §3, §4
# Equine serum BChE = target: T2, Equine serum BChE (Equus caballus, UniProt P81908); assay: biochemical; conditions: for IC50: mean ± SEM, n = 3, pH 7.5, 25 °C; for Selectivity, S = IC50 AChE/IC50 BChE: ratio IC50 AChE/IC50 BChE
# T2 construct: two enzymes of non-human origin: equine serum BChE and porcine liver CES; purchased Sigma-Aldrich; host or cells: equine serum
# T2 sequence (P81908 whole entry): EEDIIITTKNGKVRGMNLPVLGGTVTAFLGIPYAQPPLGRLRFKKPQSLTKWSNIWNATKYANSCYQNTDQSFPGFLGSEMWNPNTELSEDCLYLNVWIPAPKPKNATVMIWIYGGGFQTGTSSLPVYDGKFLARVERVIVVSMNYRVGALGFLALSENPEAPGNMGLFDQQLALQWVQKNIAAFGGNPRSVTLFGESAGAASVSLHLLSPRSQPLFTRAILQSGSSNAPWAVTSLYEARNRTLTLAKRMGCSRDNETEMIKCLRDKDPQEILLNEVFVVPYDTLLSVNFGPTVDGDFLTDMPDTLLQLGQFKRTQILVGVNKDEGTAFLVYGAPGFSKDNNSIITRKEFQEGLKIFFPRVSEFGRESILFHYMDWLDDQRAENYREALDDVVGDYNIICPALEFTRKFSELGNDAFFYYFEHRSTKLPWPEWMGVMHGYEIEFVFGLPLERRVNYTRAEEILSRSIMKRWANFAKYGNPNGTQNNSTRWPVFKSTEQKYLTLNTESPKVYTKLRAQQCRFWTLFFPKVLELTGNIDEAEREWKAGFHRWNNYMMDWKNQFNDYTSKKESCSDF
# Procedure: as §1, §5, §2, §3, §4
# EeAChE PAS = EeAChE PAS (Electrophorus electricus, UniProt O42275); assay: Propidium iodide displacement from the PAS of EeAChE (fluorescence); type: binding; conditions: compound concentration 20 µM; mean ± SEM, n = 3
# Sequence of EeAChE PAS (O42275 24-633): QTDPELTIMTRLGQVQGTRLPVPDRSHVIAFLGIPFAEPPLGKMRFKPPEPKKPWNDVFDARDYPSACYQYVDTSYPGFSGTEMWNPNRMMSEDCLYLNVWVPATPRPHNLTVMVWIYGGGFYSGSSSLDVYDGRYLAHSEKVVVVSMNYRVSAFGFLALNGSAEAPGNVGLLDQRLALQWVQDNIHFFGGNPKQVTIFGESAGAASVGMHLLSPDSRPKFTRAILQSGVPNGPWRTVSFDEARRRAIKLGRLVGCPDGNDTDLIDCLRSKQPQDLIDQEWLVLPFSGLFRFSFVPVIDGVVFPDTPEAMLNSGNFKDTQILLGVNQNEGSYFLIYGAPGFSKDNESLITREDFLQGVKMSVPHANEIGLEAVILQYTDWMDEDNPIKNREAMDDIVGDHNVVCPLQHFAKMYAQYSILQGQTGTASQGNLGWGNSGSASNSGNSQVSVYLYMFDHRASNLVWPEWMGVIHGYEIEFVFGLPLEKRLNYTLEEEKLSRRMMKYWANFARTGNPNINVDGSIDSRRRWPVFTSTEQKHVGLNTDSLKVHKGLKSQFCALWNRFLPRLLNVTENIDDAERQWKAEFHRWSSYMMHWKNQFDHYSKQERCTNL
# Procedure: EeAChE was used owing to its high degree of purification, high activity, and lower cost than human AChE (hAChE).
# To determine the degree of displacement (% displacement) of propidium from the PAS of AChE, EeAChE (final concentration, 7 μM) was incubated with the test compound at a concentration of 20 μM in 1 mM Tris-HCl buffer pH 8.0, 25 °C, for 15 min. Then, propidium iodide solution (final concentration, 8 μM) was added, the samples were incubated for 15 min and the fluorescence spectrum (530 nm (excitation) and 600 nm (emission)) was taken. […] The blank contained propidium iodide of the same concentration in 1 mM Tris-HCl buffer pH 8.0. The measurements were carried out in triplicate on the FLUOStar Optima microplate reader (BMG Labtech), and the results were calculated by the following formula:% Displacement = 100 − (IFAChE+ Propidium + inhibitor/IFAChE + Propidium) × 100(1) where IFAChE + Propidium is the fluorescence intensity of the propidium associated with AChE in the absence of the test compound (taken as 100%), and IFAChE + Propidium + inhibitor is the fluorescence intensity of the propidium associated with AChE in the presence of the test compound.
# AChE = target: T3, AChE (Homo sapiens, UniProt P22303); assay: Kinetic study of AChE inhibition, steady-state inhibition constants; type: biochemical; conditions: for Type of AChE inhibition: changes in both Km and Vmax
# T3 construct: AChE from human erythrocytes was used; purchased Sigma-Aldrich; host or cells: human erythrocytes
# T3 sequence (P22303 other isoform, or with tags, fused parts or gaps): as the sequence (P22303 other isoform, or with tags, fused parts or gaps) above
# Procedure: (§6) • Kinetic Study of AChE and BChE Inhibition. Determination of Steady-State Inhibition Constants
# (§7) Mechanisms of AChE and BChE inhibition were assessed via a thorough analysis of enzyme kinetics. Residual activity was measured following 5 min incubation at 25 °C (for temperature equilibration) with three increasing concentrations of inhibitor and six decreasing substrate concentrations. Substrate was added immediately after the 5 min incubation with inhibitor and the rates of absorption were monitored at 412 nm using the FLUOStar OPTIMA (BMG Labtech) microplate spectrophotometer. Inhibition constants Ki (competitive component) and αKi (noncompetitive component) were determined by linear regression of 1/V versus 1/[S] double-reciprocal (Lineweaver-Burk) plots using Origin 6.1 software. Data were expressed as mean ± SEM (n = 3 experiments).
# [1] = test system: AChE-induced Aβ aggregation; conditions: at 100 µM; cited from earlier work
# BChE = target: T4, BChE (Equus caballus, UniProt P81908); assay: Kinetic study of BChE inhibition, steady-state inhibition constants; type: biochemical
# T4 construct: two enzymes of non-human origin: equine serum BChE and porcine liver CES; purchased Sigma-Aldrich; host or cells: equine serum
# T4 sequence (P81908 whole entry): as the sequence (P81908 whole entry) above
# Procedure: as §6, §7
SMILES,"Porcine Liver CES, (%) (Porcine liver CES)",IC50 (Human erythrocyte AChE),IC50 (Equine serum BChE),"Selectivity, S = IC50 AChE/IC50 BChE (Equine serum BChE)",Displacement of Propidium from the EeAChE PAS (EeAChE PAS),Type of AChE inhibition (AChE),decrease in AChE-induced Aβ aggregation [1],"αKi (noncompetitive component), BChE (BChE; Lineweaver-Burk analysis)","Ki (BChE; Lineweaver-Burk analysis, read-out: Ki (competitive component), BChE)",Type of BChE inhibition (BChE; changes in both Km and Vmax),"αKi (noncompetitive component), AChE (AChE; Lineweaver-Burk analysis)","Ki (AChE; Lineweaver-Burk analysis, read-out: Ki (competitive component), AChE)"
"O=[N+]([O-])c1ccc(OP(=O)(O)Oc2ccc([N+](=O)[O-])cc2)cc1 [BNPP, bis-4-nitrophenyl phosphate, reference compound]",1.80 ± 0.11%,–,–,–,–,–,–,–,–,–,–,–
"Cc1ccc(S(=O)(=O)NCCCCCNc2c3c(nc4ccccc24)CCCC3)cc1 [7h, 4-Methyl-N-(5-(1,2,3,4-tetrahydro-acridin-9-ylamino)-pentyl)-benzenesulfonamide]",6.7 ± 0.8%,131 ± 10 nM,68 ± 1.4 nM,1.9,17.5 ± 1.5%,mixed-type AChE inhibitor,–,–,–,–,–,–
"Cc1ccc(S(=O)(=O)NCCCNc2c3c(nc4ccccc24)CCCCCC3)cc1 [7k, N-(3-(6,7,8,9,10,11-Hexahydro-cycloocta[b]quinolin-12-ylamino)-propyl)-4-methyl-benzenesulfonamide]",5.2 ± 1.5%,11100 ± 200 nM,461 ± 7 nM,24.1,15.9 ± 1.7%,–,–,–,–,–,–,–
"Cc1ccc(S(=O)(=O)NCCCNc2c3c(nc4ccccc24)CCC3)cc1 [7b, N-(3-(2,3-Dihydro-1H-cyclopenta[b]quinolin-9-ylamino)-propyl)-4-methyl-benzenesulfonamide]",8.1 ± 0.6%,7760 ± 610 nM,327 ± 4 nM,23.7,12.3 ± 1.1%,–,–,–,–,–,–,–
"Cc1ccc(S(=O)(=O)NCCNc2c3c(nc4ccccc24)CCC3)cc1 [7a, N-(2-(2,3-Dihydro-1H-cyclopenta[b]quinolin-9-ylamino)-ethyl)-4-methyl-benzenesulfonamide]",11.9 ± 1.5%,9030 ± 640 nM,924 ± 31 nM,9.8,9.2 ± 1.0%,–,–,–,–,–,–,–
CC[N+](C)(CC)CCC[n+]1c(-c2ccccc2)c2cc(N)ccc2c2ccc(N)cc21 [Propidium],–,–,–,–,–,–,82%,–,–,–,–,–
"Cc1ccc(S(=O)(=O)NCCCCNc2c3c(nc4ccccc24)CCCCC3)cc1 [7j, 4-Methyl-N-(4-(7,8,9,10-tetrahydro-6H-cyclohepta[b]quinolin-11-ylamino)-butyl)-benzenesulfonamide]",10.3 ± 0.8%,1160 ± 30 nM,78.8 ± 6 nM,14.7,16.1 ± 1.4%,–,–,–,–,–,–,–
"Cc1ccc(S(=O)(=O)NCCCCNc2c3c(nc4ccccc24)CCCC3)cc1 [7g, 4-Methyl-N-(4-(1,2,3,4-tetrahydro-acridin-9-ylamino)-butyl)-benzenesulfonamide]",17.1 ± 1.4%,668 ± 170 nM,61.7 ± 0.3 nM,10.8,14.8 ± 1.3%,mixed type of inhibition,–,0.117 ± 0.002 µM,23.5 ± 0.2 nM,mixed type of inhibition,1.09 ± 0.02 µM,390 ± 8 nM
"Cc1ccc(S(=O)(=O)NCCCCNc2c3c(nc4ccccc24)CCC3)cc1 [7c, N-(4-(2,3-Dihydro-1H-cyclopenta[b]quinolin-9-ylamino)-butyl)-4-methyl-benzenesulfonamide]",9.0 ± 0.1%,2080 ± 80 nM,578 ± 25 nM,3.6,14.9 ± 1.2%,–,–,–,–,–,–,–
"Cc1ccc(S(=O)(=O)NCCCNc2c3c(nc4ccccc24)CCCC3)cc1 [7f, 4-Methyl-N-(3-(1,2,3,4-tetrahydro-acridin-9-ylamino)-propyl)-benzenesulfonamide]",2.0 ± 0.8%,1880 ± 30 nM,110 ± 5 nM,17.1,9.8 ± 0.8%,–,–,–,–,–,–,–
"Cc1ccc(S(=O)(=O)NCCCCCNc2c3c(nc4ccccc24)CCC3)cc1 [7d, N-(5-(2,3-Dihydro-1H-cyclopenta[b]quinolin-9-ylamino)-pentyl)-4-methyl-benzenesulfonamide]",29.6 ± 1.2%,1970 ± 50 nM,459 ± 44 nM,4.3,15.1 ± 1.4%,–,–,–,–,–,–,–
"Cc1ccc(S(=O)(=O)NCCCNc2c3c(nc4ccccc24)CCCCC3)cc1 [7i, 4-Methyl-N-(3-(7,8,9,10-tetrahydro-6H-cyclohepta[b]quinolin-11-ylamino)-propyl)-benzenesulfonamide]",1.9 ± 0.9%,2760 ± 40 nM,43.1 ± 1.1 nM,64.0,13.9 ± 1.3%,–,–,–,–,–,–,–
"Cc1ccc(S(=O)(=O)NCCCCCCNc2c3c(nc4ccccc24)CCC3)cc1 [7e, N-(6-(2,3-Dihydro-1H-cyclopenta[b]quinolin-9-ylamino)-hexyl)-4-methyl-benzenesulfonamide]",18.6 ± 0.2%,4000 ± 90 nM,209 ± 8 nM,–,15.9 ± 1.3%,–,–,–,–,–,–,–
